Experimental data reported in patent publication US20090054509A1, “Octahydropentalene-Substituted Pyrazoline Derivatives, Their Prepartion and Use as Medicaments” (LABORATORIOS DEL DR. ESTEVE, S.A., priority 2005, published 2009).

Columns and labels:
[1] = biological target: T1, recombinant human cannabinoid 1 receptor (CB1) (Homo sapiens, UniProt P21554); assay: [35S]GTPγS binding assay, antagonism against WIN 55,212-2; format: biochemical; conditions: compound at 1 μM against WIN 55,212-2 dose response, CHO-hCB1 membranes, 100% = effect of internal standard CB1-antagonist
T1 construct: expressed in transfected cells; membranes prepared
Protocol: Chinese hamster ovary (CHO) cells stably expressing recombinant human cannabinoid 1 receptor (CB1) were cultured in nutrient mixture Ham's F 12 supplemented with 10% heat-inactivated fetal bovine serum, 2 mM L-glutamine, 50 U/ml penicillin, 50 U/ml streptomycin and 0.5 mg/ml geneticin. In order to obtain cells, culture flasks were washed twice with phosphate buffered saline and scraped. Then, cells were collected by centrifugation (200×g, 10 min) and stored dry at −80° C. Cells were homogenized in ice-cold 20 mM HEPES, 10 mM EDTA (pH 7.5) and centrifuged at 40,000×g for 15 min at 4° C. The pellet was resuspended in 20 mM HEPES, 0.1 mM EDTA (pH 7.5) and centrifuged for 15 min at 4° C. The final pellet was resuspended in 20 mM HEPES, 0.1 mM EDTA (pH 7.5), and divided in aliquots and stored at −80° C. until use.
The reaction was performed in 96-well plates. Membranes (15 µg protein/well) were incubated for 60 min at 30° C. in buffer (50 mM HEPES, 100 mM KCl, 5 mM MgCl2, 1 mM EDTA, 0.1% wt/vol bovine serum albumin, 5 μM GDP, saponin (10 μg/ml), 0.5 nM [^35S]GTPγS, pH 7.4) with compound at 1 μM final concentration in either the absence or presence of dose response curve of agonist WIN 55, 212-2 between 3 nM and 3 μM. The incubation was terminated by rapid filtration through Millipore Multiscreen glass fiber FB, and rinsed two-times with ice-cold assay buffer. Filter plates were dried and 30 μl of scintillation liquid was added. Radioactivity was determined using Wallac Microbeta Trilux. Each experiment was performed at least in duplicate. A WIN 55, 212-2 dose-response was systematically performed.
The average of basal [^35S]GTPγS binding was subtracted from all binding data. In order to compare the antagonism results from one screening campaign to another one, the difference between the maximal agonist effect of WIN 55, 212-2 alone, and the maximal antagonism effect due to WIN 55, 212-2 with an internal standard CB1-antagonist was defined as 100%.

[2] = In vivo testing for antiobesic activity, acute treatment; conditions: rats, acute oral administration; body weight difference versus control
Protocol: Normally handled rats were habituated to a reversed cycle 12/12 h, and the compound as well as saline was acutely orally administered. After administration the cumulated food intake (g) was measured at 6 h and 23 h. Following that the difference in body weight between control and compound treated animals was measured.

T1 sequence (P21554 whole entry): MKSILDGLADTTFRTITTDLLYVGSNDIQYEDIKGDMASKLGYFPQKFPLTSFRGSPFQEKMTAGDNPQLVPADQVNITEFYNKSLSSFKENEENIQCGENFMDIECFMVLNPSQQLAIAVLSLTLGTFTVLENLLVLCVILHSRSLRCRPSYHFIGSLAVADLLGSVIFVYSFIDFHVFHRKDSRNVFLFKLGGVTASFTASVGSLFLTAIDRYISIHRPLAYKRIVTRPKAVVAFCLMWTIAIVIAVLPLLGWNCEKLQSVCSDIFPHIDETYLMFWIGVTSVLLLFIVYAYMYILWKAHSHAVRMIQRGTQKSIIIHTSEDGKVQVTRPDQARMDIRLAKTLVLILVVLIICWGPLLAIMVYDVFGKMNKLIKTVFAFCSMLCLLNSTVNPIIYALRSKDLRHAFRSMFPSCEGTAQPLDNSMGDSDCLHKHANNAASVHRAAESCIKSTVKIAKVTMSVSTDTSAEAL

Compound	Antagonism (%) [1] [%]	reduction of body weight [2]	Antagonism (%) ([1]; hydrochloride)
C[C@H]1C(C(=O)NN2CC3CCCC3C2)=NN(c2ccc(Cl)cc2Cl)[C@H]1c1ccc(F)cc1.Cl (relative stereo) [Example 5, cis-1-(2,4-dichlorophenyl)-5-(4-fluorophenyl)-N-(hexahydrocyclopenta-[c]pyrrol-2(1H)-yl)-4-methyl-4,5-dihydro-1H-pyrazole-3-carboxamide hydrochloride]	108 ± 13	–	–
COc1ccc([C@H]2[C@@H](C)C(C(=O)NN3CC4CCCC4C3)=NN2c2ccc(Cl)cc2Cl)cc1.Cl (relative stereo) [Example 7, cis-1-(2,4-dichlorophenyl)-N-(hexahydrocyclopenta[c]pyrrol-2(1H)-yl)-5-(4-methoxyphenyl)-4-methyl-4,5-dihydro-1H-pyrazole-3-carboxamide hydrochloride]	148	–	–
C[C@H]1C(C(=O)NN2CC3CCCC3C2)=NN(c2ccc(Cl)cc2Cl)[C@H]1c1ccc(Br)cc1.Cl (relative stereo) [Example 3, cis-5-(4-bromophenyl)-1-(2,4-dichlorophenyl)-N-(hexahydrocyclopenta-[c]pyrrol-2(1H)-yl)-4-methyl-4,5-dihydro-1H-pyrazole-3-carboxamide hydrochloride]	99 ± 2	–	–
C[C@H]1C(C(=O)NN2CC3CCCC3C2)=NN(c2ccc(Cl)cc2Cl)[C@H]1c1ccc(Cl)cc1.Cl (single isomer, unassigned) [Example 1, cis-5-(4-chlorophenyl)-1-(2,4-dichlorophenyl)-N-(hexahydrocyclopenta-[c]pyrrol-2(1H)-yl)-4-methyl-4,5-dihydro-1H-pyrazole-3-carboxamide hydrochloride]	–	good activity	112 ± 0
C[C@H]1C(C(=O)NN2CC3CCCC3C2)=NN(c2ccc(Cl)cc2Cl)[C@H]1c1ccc(Cl)cc1.Cl (single isomer, unassigned) [1 (HCl), cis-5-(4-chlorophenyl)-1-(2,4-dichlorophenyl)-N-(hexahydrocyclopenta-[c]pyrrol-2(1H)-yl)-4-methyl-4,5-dihydro-1H-pyrazole-3-carboxamide hydrochloride]	–	–	102 ± 7
